{
  "source": "patent US20240083861A1",
  "about": "“HSD17B13 INHIBITORS AND USES THEREOF” (FL2022-001, Inc., priority 2020, published 2024)",
  "data": [
    {"molecular_target": "T1, Recombinant human HSD17B13 enzyme (Homo sapiens, UniProt Q7Z5P4)", "T1 sequence (Q7Z5P4 20-300)": "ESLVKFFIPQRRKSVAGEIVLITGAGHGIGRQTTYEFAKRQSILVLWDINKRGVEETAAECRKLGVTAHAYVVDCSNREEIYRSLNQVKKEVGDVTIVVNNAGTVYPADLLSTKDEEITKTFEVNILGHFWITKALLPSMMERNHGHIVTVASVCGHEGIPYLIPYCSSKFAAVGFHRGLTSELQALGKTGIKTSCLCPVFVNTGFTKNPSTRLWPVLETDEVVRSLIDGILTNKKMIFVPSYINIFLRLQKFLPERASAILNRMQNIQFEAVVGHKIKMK", "assay": "HSD17b13 NAD(P)H-Glo biochemical assay", "conditions": "50 uM estradiol, 1 mM NAD+, NAD(P)H-Glo luminescence; read-out: HSD17β13 IC50", "outline": "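Recombinant human HSD17B13 in 20 mM Tris pH7.4 with 0.002% Tween-20 and 0.02% BSA was preincubated with inhibitor for 20 minutes at RT. The reaction ran 3 hours at 37° C with 50 uM estradiol and 1 mM NAD+ (final). NADH formed was detected by NAD(P)H-Glo luminescence after 1 hour at RT.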", "units": {"IC50": "nM"}, "values": [
      {"smiles": "Cn1nc(-c2cc(C(F)(F)F)c(F)c(O)c2F)c2cnc(N3CCN(C(=O)C4CC4)CC3)nc21", "note": "[Compound 18.123, Cyclopropyl(4-(3-(2,4-difluoro-3-hydroxy-5-(trifluoromethyl)phenyl)-1-methyl-1H-pyrazolo[3,4-d]pyrimidin-6-y1)piperazin-1-yl)methanone]", "IC50": "< 100"},
      {"smiles": "Cn1nc(-c2cc(C(F)(F)F)c(F)c(O)c2F)c2cnc(N(Cc3ccccc3)C3CCC3)nc21", "note": "[Compound 18.124, 3-(6-(Benzyl(cyclobutyl)amino)-1-methyl-1H-pyrazolo[3,4-d]pyrimidin-3-y1)-2,6-difluoro-5-(trifluoromethyl)phenol]", "IC50": "< 100"},
      {"smiles": "Cn1nc(-c2cc(C(F)(F)F)c(F)c(O)c2F)c2cnc(N3CCN(C(=O)NC4CCCCC4)CC3)nc21", "note": "[Compound 18.125, N-Cyclohexyl-4-(3-(2,4-difluoro-3-hydroxy-5-(trifluoromethyl)phenyl)-1-methyl-1H-pyrazolo[3,4-d]pyrimidin-6-y1)piperazine-1-carboxamide]", "IC50": "< 100"},
      {"smiles": "Cn1nc(-c2cc(C(F)(F)F)c(F)c(O)c2F)c2cnc(N3CCN(C(=O)CN4CCOCC4)CC3)nc21", "note": "[Compound 18.126, 1-(4-(3-(2,4-Difluoro-3-hydroxy-5-(trifluoromethyl)phenyl)-1-methyl-1H-pyrazolo[3,4-d]pyrimidin-6-y1)piperazin-1-yl)-2-morpholinoethan-1-one]", "IC50": "100 to 1000"},
      {"smiles": "Cn1nc(-c2cc(C(F)(F)F)c(F)c(O)c2F)c2cnc(N3CCN(C(=O)C4CCOCC4)CC3)nc21", "note": "[Compound 18.127, (4-(3-(2,4-Difluoro-3-hydroxy-5-(trifluoromethyl)phenyl)-1-methyl-1H-pyrazolo[3,4-d]pyrimidin-6-yl)piperazin-1-yl)(tetrahydro-2H-pyran-4-yl)methanone]", "IC50": "100 to 1000"},
      {"smiles": "Cn1nc(-c2cc(C(F)(F)F)c(F)c(O)c2F)c2cnc(N3CCN(C(=O)c4cccnc4)CC3)nc21", "note": "[Compound 18.128, (4-(3-(2,4-Difluoro-3-hydroxy-5-(trifluoromethyl)phenyl)-1-methyl-1H-pyrazolo[3,4-d]pyrimidin-6-yl)piperazin-1-yl)(pyridin-3-yl)methanone]", "IC50": "100 to 1000"},
      {"smiles": "CC(=O)N1CCN(c2ncc3c(-c4cc(C(F)(F)F)c(F)c(O)c4F)nn(C)c3n2)C2(CC2)C1", "note": "[Compound 18.129, 1-(4-(3-(2,4-Difluoro-3-hydroxy-5-(trifluoromethyl)phenyl)-1-methyl-1H-pyrazolo[3,4-d]pyrimidin-6-yl)-4,7-diazaspiro[2.5]octan-7-yl)ethan-1-one]", "IC50": "< 100"},
      {"smiles": "Cn1nc(-c2cc(C(F)(F)F)c(F)c(O)c2F)c2cnc(N3CCOCC3C3CCCCC3)nc21", "note": "(stereo not drawn) [Compound 18.130, 3-(6-(3-Cyclohexylmorpholino)-1-methyl-1H-pyrazolo[3,4-d]pyrimidin-3-y1)-2,6-difluoro-5-(trifluoromethyl)phenol]", "IC50": "< 100"},
      {"smiles": "Cn1nc(-c2cc(C(F)(F)F)c(F)c(O)c2F)c2cnc(N3CCO[C@@H](CO)C3)nc21", "note": "[Compound 18.131, (R)-2,6-Difluoro-3-(6-(2-(hydroxymethyl)morpholino)-1-methyl-1H-pyrazolo[3,4-d]pyrimidin-3-y1)-5-(trifluoromethyl)phenol]", "IC50": "100 to 1000"},
      {"smiles": "Cn1nc(-c2cc(C(F)(F)F)c(F)c(O)c2F)c2cnc(N3CCOCC3)nc21", "note": "[Compound 18.132, 2,6-Difluoro-3-(1-methyl-6-morpholino-1H-pyrazolo[3,4-d]pyrimidin-3-y1)-5-(trifluoromethyl)phenol]", "IC50": "< 100"},
      {"smiles": "CN(c1ncc2c(-c3cc(C(F)(F)F)c(F)c(O)c3F)nn(C)c2n1)C1CCNCC1", "note": "[Compound 19, 2,6-Difluoro-3-(1-methyl-6-(methyl(piperidin-4-yl)amino)-1H-pyrazolo[3,4-d]pyrimidin-3-y1)-5-(trifluoromethyl)phenol]", "IC50": "100 to 1000"},
      {"smiles": "CC(=O)N1CCC(N(C)c2ncc3c(-c4cc(C(F)(F)F)c(F)c(O)c4F)nn(C)c3n2)CC1", "note": "[Compound 19.01, 1-(4-((3-(2,4-Difluoro-3-hydroxy-5-(trifluoromethyl)phenyl)-1-methyl-1H-pyrazolo[3,4-d]pyrimidin-6-y1)(methyl)amino)piperidin-1-yl)ethan-1-one]", "IC50": "< 100"}
    ]}
  ]
}
